{"source": "patent US6479067B2", "about": "“Methods for treating ovarian cancer, poly (phosphoester) compositions, and biodegradable articles for same” (Guilford Pharmaceuticals, Inc., priority 1999, dated 2002)", "key": {"[1]": {"test": "Subcutaneous injection: implant site macrophage counts and irritation scores", "type": "in vivo, male S-D rats", "conditions": "s.c."}, "[2]": {"conditions": "for Paclitaxel Concentration (plasma): 120 mg/kg i.p."}, "[3]": {"system": "melanoma cell line B16/F10"}, "[4]": {"conditions": "0.7 ml (polymers 89 mg/kg), 7 Day"}, "[5]": {"conditions": "0.7 ml (polymers 89 mg/kg), 14 Day"}, "[6]": {"conditions": "0.7 ml (polymers 89 mg/kg), 31 Day"}, "[7]": {"conditions": "2.0 ml (polymers 267 mg/kg), 7 Day"}, "[8]": {"conditions": "2.0 ml (polymers 267 mg/kg), 14 Day"}, "[9]": {"conditions": "2.0 ml (polymers 267 mg/kg), 31 Day"}, "[10]": {"conditions": "28 days, formulation injected on Day 3"}, "[11]": {"conditions": "28 days, formulation injected on Day 7"}, "[12]": {"conditions": "42 days, formulation injected on Day 3"}, "[13]": {"conditions": "42 days, formulation injected on Day 7"}}, "note": "Counter-ions that a name gives are not always drawn. Like-named read-outs stand apart in the source and are kept apart here."}
{"compound": "CC(=O)O", "note": "[Acetic Acid]", "values": [{"measurement": "# = Mean count (implant site macrophages)", "setting": "[1]; [4]", "value": 208}, {"measurement": "Irritation", "setting": "[1]; [4]", "value": "Mild (200-400 Mild Irritation)"}, {"measurement": "# = Mean count (implant site macrophages)", "setting": "[1]; [5]", "value": 166}, {"measurement": "Irritation", "setting": "[1]; [5]", "value": "Sl. (0-200 Slight Irritation)"}, {"measurement": "# = Mean count (implant site macrophages)", "setting": "[1]; [6]", "value": 20}, {"measurement": "Irritation", "setting": "[1]; [6]", "value": "Sl. (0-200 Slight Irritation)"}, {"measurement": "# = Mean count (implant site macrophages)", "setting": "[1]; [7]", "value": 267}, {"measurement": "Irritation", "setting": "[1]; [7]", "value": "Mild (200-400 Mild Irritation)"}, {"measurement": "# = Mean count (implant site macrophages)", "setting": "[1]; [8]", "value": 334}, {"measurement": "Irritation", "setting": "[1]; [8]", "value": "Mild (200-400 Mild Irritation)"}, {"measurement": "# = Mean count (implant site macrophages)", "setting": "[1]; [9]", "value": 32}, {"measurement": "Irritation", "setting": "[1]; [9]", "value": "Sl. (0-200 Slight Irritation)"}]}
{"compound": "CC(=O)O[C@H]1C(=O)[C@@]2(C)[C@H]([C@H](OC(=O)c3ccccc3)[C@]3(O)C[C@H](OC(=O)[C@H](O)[C@@H](NC(=O)c4ccccc4)c4ccccc4)C(C)=C1C3(C)C)[C@]1(OC(C)=O)CO[C@@H]1C[C@@H]2O", "note": "[Paclitaxel w/o polymer, paclitaxel]", "values": [{"measurement": "Paclitaxel Concentration (plasma)", "setting": "[2]; 14 days", "value": "Animal died"}, {"measurement": "Paclitaxel Concentration (plasma)", "setting": "[2]; 28 days", "value": "Animal died"}, {"measurement": "Tolerability", "setting": "[2]; comparable dose given intraperitoneally", "value": "could not tolerate the dose"}]}
{"compound": "COc1cccc2c1C(=O)c1c(O)c3c(c(O)c1C2=O)C[C@@](O)(C(=O)CO)C[C@@H]3O[C@H]1C[C@H](N)[C@H](O)[C@H](C)O1", "note": "[Bolus Dox, doxorubicin hydrochloride]", "values": [{"measurement": "Number of Mice Survived", "setting": "[3]; [10]", "value": 8}, {"measurement": "Tumor Volume (mm^3 ± SEM) After Tumor Injection", "setting": "[3]; [10]", "value": "1218.9 ± 304.1", "unit": "mm^3"}, {"measurement": "Number of Mice Survived", "setting": "[3]; [11]", "value": 8}, {"measurement": "Tumor Volume (mm^3 ± SEM) After Tumor Injection", "setting": "[3]; [11]", "value": "1661.2 ± 301.8", "unit": "mm^3"}, {"measurement": "Number of Mice Survived", "setting": "[3]; [12]", "value": 5}, {"measurement": "Tumor Volume (mm^3 ± SEM) After Tumor Injection", "setting": "[3]; [12]", "value": "3942.5 ± 1818", "unit": "mm^3"}, {"measurement": "Number of Mice Survived", "setting": "[3]; [13]", "value": 3}, {"measurement": "Tumor Volume (mm^3 ± SEM) After Tumor Injection", "setting": "[3]; [13]", "value": "4394.3 ± 741.3", "unit": "mm^3"}, {"measurement": "Early death after injection", "setting": "[3]; about 3-4 days after the injections", "value": "did not produce early death"}]}
